Source: patent US20240316084A1, “COMPOSITIONS FOR USE IN PROMOTING ACCELERATED BUTYRATE PRODUCTION IN YOUNG CHILDREN” (SOCIETE DES PRODUITS NESTLE S.A., priority 2020, published 2024)

Tests used:
Type in all cases: cell-based, human
gut microbes = assay: gas production: samples from the proximal colon vessel of the SHIME treated with lactose or 2′-FL in a penicillin tube; settings: for gas production between 6-24 h (rank): 6-24 h timeframe, Lactose versus 2′FL; for gas production at 48 h (gaz pressure): 48 h incubation
Description: Gas production is a measure of fermentative activity by gut microbes. […] Gas production is not monitored in the long-term SHIME® model, given its regular flushing with N2 (to ensure anaerobiosis). Therefore, gas production was evaluated by collecting samples from the proximal colon vessel of the SHIME and treating them with lactose or 2′-FL in a penicillin tube. It was then incubated for 24 h and 48 h. The gas formation was assessed in those tubes.

[1] = tested on: gut microbiota of an infant; assay: long term SHIME experiment with infant fecal samples (Example 1); settings: for Actinobacteria population (Abundance), colon model / butyrate concentration in colon model: Infant; for increase of butyrate production: infant gut microbiota, three weeks of treatment
Description: (§1) The model of the human gastrointestinal tract used was the SHIME®. The first two reactors are of the fill-and-draw principle to simulate different steps in food uptake and digestion, with peristaltic pumps adding a defined amount of SHIME® feed (140 mL 3×/day) and pancreatic and bile liquid (60 mL 3×/day), respectively to the stomach and small intestine compartment and emptying the respective reactors after specified intervals. The last three compartments simulate the large intestine. The SHIME® experiment for this study consisted of three stages: • Stabilization period: After inoculation of the colon reactors with a fresh faecal sample, a two-week stabilization period allowed the microbial community to differentiate in the different reactors depending on the local environmental conditions. During this period a basic nutritional matrix was provided to the SHIME to support the optimum diversity of the gut microbiota originally present in the faecal inoculum. • Control period: During this two-week reference period, the standard SHIME® nutrient matrix was further added to the model for a period of 14 days. Analysis of samples in this period allows to determine the baseline microbial community composition and activity in the different reactors, which will be used as a reference for evaluating the treatment effects. • Treatment period: During this three-week period, the SHIME® reactor was operated under nominal conditions, but with a diet supplemented with the 2′FL product on top of the normal composition. The diet supplemented with 2′FL was administered 3 times a day at a concentration of 1% SCFA Production were Measured Three Times Per Week Throughout the Experiment

[2] = tested on: gut microbiota of a toddler; assay: long term SHIME experiment, comparison of different HMOs blends in toddler (Example 2)
Description: The model of the human gastrointestinal tract used was the SHIM ED. The first two reactors are of the fill-and-draw principle to simulate different steps in food uptake and digestion, with peristaltic pumps adding a defined amount of SHIME feed (140 mL 3×/day) and pancreatic and bile liquid (60 mL 3×/day), respectively to the stomach and small intestine compartment and emptying the respective reactors after specified intervals. The last three compartments simulate the large intestine. The SHIME® experiment for this study consisted of three stages: • Stabilization period: After inoculation of the colon reactors with a fresh faecal sample, a two-week stabilization period allowed the microbial community to differentiate in the different reactors depending on the local environmental conditions. During this period a basic nutritional matrix was provided to the SHIME to support the optimum diversity of the gut microbiota originally present in the faecal inoculum. • Control period: During this two-week reference period, the standard SHIME nutrient matrix was further added to the model for a period of 14 days. Analysis of samples in this period allows to determine the baseline microbial community composition and activity in the different reactors, which will be used as a reference for evaluating the treatment effects. • Treatment period: During this three-week period, the SHIME reactor was operated under nominal conditions, but with a diet supplemented with the 2′FL product on top of the normal composition or with the mixtures HMO-3 or HMO-5. The diet supplemented with HMOs administered 3 times a day at a concentration of 1%. In this experiment, also branched SCFA (b-SCFA=sum of isobutyrate, isovalerate and isocaproate) were measured which result from protein degradation and reflect proteolytic activity of the gut microbiota. A significant alterations in those metabolites was shown in fecal extracts from patients with colon cancer compared to controls Ref: Le Gall 2018 (Oncotarget, 2018, Vol. 9, (No. 70), pp: 33278-33289)

[3] = tested on: gut microbiota of a toddler; assay: long term SHIME experiment with toddler samples (Example 1); settings: for Actinobacteria population (Abundance), colon model / butyrate concentration in colon model: Toddler; for increase of butyrate production: young child, three weeks of treatment
Description: as §1

[4] = treatment week 1, diet with 1% 2′FL 3 times a day
[5] = treatment week 2, diet with 1% 2′FL 3 times a day
[6] = treatment week 3, diet with 1% 2′FL 3 times a day
[7] = distal colon, treatment week 3, diet with 1% HMOs 3 times a day

## OC[C@H]1O[C@@H](O[C@H]2[C@H](O)[C@@H](O)C(O)O[C@@H]2CO)[C@H](O)[C@@H](O)[C@H]1O (stereo partly shown) [Lactose, reference compound]
Gut microbes
  gas production between 6-24 h (rank): highest
Gut microbes; Infant
  gas production at 48 h (gaz pressure): 4.7 kPA
Gut microbes; Toddler
  gas production at 48 h (gaz pressure): 12.8 kPA

## 2′-fucosyllactose [2′-FL]
[1]; treatment week 1
  Actinobacteria population (Abundance), colon model: 31.8%
[1]; [4]
  butyrate concentration in colon model: 13.75 mM/m1
[1]; treatment week 2
  Actinobacteria population (Abundance), colon model: 46.3%
[1]; [5]
  butyrate concentration in colon model: 15.85 mM/m1
[1]; treatment week 3
  Actinobacteria population (Abundance), colon model: 43.5%
[1]; [6]
  butyrate concentration in colon model: 20.3 mM/m1
[1]; infant fecal samples, over the weeks of treatment
  increase in butyrate, onset of effect: more gradual
[1]; Distal Colon
  increase of butyrate production: 54%
[1]; Proximal Colon
  increase of butyrate production: 81%
Gut microbes
  gas production between 6-24 h (rank): lowest
Gut microbes; Infant
  gas production at 48 h (gaz pressure): 31.8 kPA
Gut microbes; Toddler
  gas production at 48 h (gaz pressure): 49.9 kPA
Gut microbes; both toddler and infant, 48 hours
  gas production over 48 hours as compared to Lactose: less gas production
Gut microbes; toddlers
  increase in gas production corresponding to accelerated butyrate production: no corresponding increase in gas production
[2]
  butyrate production in the colon, onset of effect: immediate increase
[2]; [7]
  BCFA production in toddler: 3.1 mM
  butyrate production in toddler: 29.5 mM
[3]; treatment week 1
  Actinobacteria population (Abundance), colon model: 49.9%
[3]; [4]
  butyrate concentration in colon model: 28.1 mM/m1
[3]; treatment week 2
  Actinobacteria population (Abundance), colon model: 53%
[3]; [5]
  butyrate concentration in colon model: 30.2 mM/m1
[3]; treatment week 3
  Actinobacteria population (Abundance), colon model: 52.2%
[3]; [6]
  butyrate concentration in colon model: 30.3 mM/m1
[3]; toddler samples
  butyrate concentration in the colon, onset of effect: immediate increase
  butyrate concentrations, course through the treatment period: relatively stable
[3]; toddlers
  effect on Actinobacteria phylum mainly composed of Bifidobacteria: immediate effect
[3]; Distal Colon
  increase of butyrate production: 156%
[3]; Proximal Colon
  increase of butyrate production: 192%
